# Paper PMC8888699, “Crystal structure and catalytic mechanism of the MbnBC holoenzyme required for methanobactin biosynthesis” (Cell Research, 2022)
# Like-named read-outs stand apart in the source and are kept apart here. Ends that are not written are not given here. Peptide text beside a SMILES is read from it.
# T1: RrMbnBC (Rugamonas rubra, UniProt A0A1I4IFH0+A0A1I4IFL0)
# T1 sequence (A0A1I4IFL0 1-277): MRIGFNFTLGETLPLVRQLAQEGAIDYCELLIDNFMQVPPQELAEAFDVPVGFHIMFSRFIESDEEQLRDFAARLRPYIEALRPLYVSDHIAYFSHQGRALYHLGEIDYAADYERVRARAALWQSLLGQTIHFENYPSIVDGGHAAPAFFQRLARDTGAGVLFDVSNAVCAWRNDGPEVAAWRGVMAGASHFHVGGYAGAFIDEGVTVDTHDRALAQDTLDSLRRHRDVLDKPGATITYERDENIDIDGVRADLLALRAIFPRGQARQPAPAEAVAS
# T1 sequence (A0A1I4IFH0 1-199): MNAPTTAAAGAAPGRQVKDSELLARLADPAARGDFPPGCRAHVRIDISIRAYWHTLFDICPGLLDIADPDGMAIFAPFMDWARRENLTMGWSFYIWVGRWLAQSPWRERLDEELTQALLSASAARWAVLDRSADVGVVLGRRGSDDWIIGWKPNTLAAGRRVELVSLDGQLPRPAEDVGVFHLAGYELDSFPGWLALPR
# T2: VcMbnBC complex (Vibrio caribbenthicus BAA-2122)
# T2 chain 1: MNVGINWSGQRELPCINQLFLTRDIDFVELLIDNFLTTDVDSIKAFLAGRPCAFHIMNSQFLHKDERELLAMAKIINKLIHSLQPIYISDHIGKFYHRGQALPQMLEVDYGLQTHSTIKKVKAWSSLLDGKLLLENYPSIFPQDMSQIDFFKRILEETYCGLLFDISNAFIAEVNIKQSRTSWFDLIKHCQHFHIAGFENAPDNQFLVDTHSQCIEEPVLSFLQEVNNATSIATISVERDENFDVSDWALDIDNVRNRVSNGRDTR
# T2 chain 2: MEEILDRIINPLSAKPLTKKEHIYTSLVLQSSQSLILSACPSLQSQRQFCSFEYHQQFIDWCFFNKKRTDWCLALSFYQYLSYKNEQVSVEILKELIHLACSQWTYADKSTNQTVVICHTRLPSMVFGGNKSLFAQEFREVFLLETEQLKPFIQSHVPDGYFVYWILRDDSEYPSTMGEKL
# T3: RrMbnBC complex (Rugamonas rubra ATCC 43154)
# T3 chain 1: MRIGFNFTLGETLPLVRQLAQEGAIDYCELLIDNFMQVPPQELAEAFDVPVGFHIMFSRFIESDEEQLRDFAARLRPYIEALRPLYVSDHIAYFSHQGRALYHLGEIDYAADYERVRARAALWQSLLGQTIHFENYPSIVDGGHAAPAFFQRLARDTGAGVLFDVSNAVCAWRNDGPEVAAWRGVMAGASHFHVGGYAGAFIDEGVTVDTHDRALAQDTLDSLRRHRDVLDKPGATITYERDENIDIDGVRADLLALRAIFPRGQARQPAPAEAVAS
# T3 chain 2: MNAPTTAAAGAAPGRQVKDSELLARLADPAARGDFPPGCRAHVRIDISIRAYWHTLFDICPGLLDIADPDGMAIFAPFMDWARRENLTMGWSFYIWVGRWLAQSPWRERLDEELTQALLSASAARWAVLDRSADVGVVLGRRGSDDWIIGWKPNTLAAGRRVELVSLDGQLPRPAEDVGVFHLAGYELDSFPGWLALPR
# Experiments:
# [1] = system: VcMbnBC; experiment: ITC measurement of VcMbnA and variants binding affinity to VcMbnBC; set-up: species or system Vibrio caribbenthicus BAA-2122
# Description: MbnBC and the mutant proteins were all purified using the two-step standard method described above. The purified proteins were adjusted to 1 mg/mL and stored in 25 mM HEPES (pH 8.0) and 100 mM NaCl for ITC measurement. The MbnAs were dissolved and diluted to a working concentration of 2 mM in distilled water. ITC experiments were performed on a Nano ITC (Nano ITC-Low Volume; TA instrument, USA). Settings for the MbnA binding assay were optimized as follows: the titration assay was performed at 16 °C by injecting 2.5 μL MbnA peptide into a full cell containing 190 μL MbnBC or mutant MbnBC proteins every 120 s for a total of 20 injections, and the stirrer syringe stirring speed was set at 250 rpm.
# [2] = biological target: T1, RrMbnBC; experiment: UV-Vis activity assay, MbnA modification by RrMbnBC; type: biochemical, Rugamonas rubra ATCC 43154; conditions: co-expressed in Escherichia coli
# Description: Standard UV-Vis spectra detection was performed on a UV-Vis and Vis instrument (Ultrospec 2100 pro, Biochrom, UK) at room temperature. MtMbnBC and RrMbnBC proteins were adjusted to 5 mg/mL (nearly 100 μM), and VcMbnBC was adjusted to a concentration of 1 mg/mL (nearly 20 μM). The corresponding substrates, VcMbnA, RrMbnA, MtMbnA, and their variants (Supplementary information, Table S5), were dissolved in distilled water and diluted to a working concentration of 5 mM with buffer B. The reaction was initiated when 100 μL MbnBC proteins and 5 μL MbnA peptides were applied to the reaction system, and the reaction was diluted up to 1 mL with buffer B. The mixture was then added into a quartz cuvette and recorded at 20-s intervals for a total of 50 reads at room temperature. For assays using anaerobically prepared MbnBC proteins, the measurements were immediately recorded by adding the anaerobically prepared MbnBC into the reaction system, with peptides pre-mixed in the quartz cuvette. The buffer B used in the assay was O2-saturated at room temperature.
# For the stopped-flow UV-Vis spectroscopic analysis, 10 μM MtMbnBC or RrMbnBC or 2 μM VcMbnBC was incubated with 250 μM MbnA peptides at room temperature for 1 h, followed by detection on a UV-Vis and Vis instrument (Nanodrop One, Thermo Scientific, MA). Data were processed by Graphpad Prism version 8.3.
# [3] = biological target: T1, RrMbnBC; experiment: Limited proteolysis assay of RrMbnBC with MbnA; set-up: species or system Rugamonas rubra ATCC 43154; conditions: ~20 µM RrMbnBC incubated with MbnA 1 h at 4 °C, trypsin 30 min on ice, SDS-PAGE
# Description: The limited proteolysis assay allows the characterization of the increase in stability of wild-type proteins upon binding to their substrates. The VcMbnBC and RrMbnBC proteins used in this assay were all adjusted to an equal molar concentration of about 20 µM. The RrMbnBC or VcMbnBC complex, by itself or after incubation with the corresponding MbnA peptide for 1 h at 4 °C, was digested by trypsin. After 30 min of incubation on ice, the proteolyzed products were analyzed by SDS-PAGE and visualized by Coomassie blue staining.
# [4] = biological target: T2, VcMbnBC complex; experiment: ITC
# [5] = biological target: T3, RrMbnBC complex; experiment: ITC
# [6] = biological target: T3, RrMbnBC complex; experiment: ITC
molecule,measurement,setting,value
MKNDKKVVVKVKDKEM [LP],"interaction with VcMbnBC (binding assays, in words)",[1]; ITC binding assays of VcMbnBC with VcMbnA variants,weak interaction
same,Kd,"[1]; ITC, 16 °C, 2 mM peptide, 20 injections of 2.5 μL into 190 μL VcMbnBC 1 mg/mL in 25 mM HEPES pH 8.0, 100 mM NaCl, one-site binding, read-out: Kd, VcMbnA or variant/VcMbnBC",63.8 ± 10.5 µM
CC[C@H](C)[C@H](NC(=O)[C@H](CCC(=O)O)NC(=O)[C@@H](NC(=O)[C@H](CCCCN)NC(=O)[C@H](CCCCN)NC(=O)[C@@H](NC(=O)[C@@H](NC(=O)[C@@H](NC(=O)[C@@H](NC(=O)[C@H](CCCCN)NC(=O)[C@@H](N)CCSC)[C@@H](C)CC)C(C)C)[C@@H](C)CC)C(C)C)C(C)C)C(=O)N[C@@H](CCC(N)=O)C(=O)N[C@H](C(=O)N[C@@H](C)C(=O)NCC(=O)N[C@@H](CCCNC(=N)N)C(=O)N[C@H](C(=O)NCC(=O)N[C@@H](CCSC)C(=O)N[C@@H](CCCNC(=N)N)C(=O)N[C@@H](CS)C(=O)N[C@@H](C)C(=O)N[C@@H](CO)C(=O)N[C@@H](CO)C(=O)N[C@@H](CS)C(=O)NCC(=O)N[C@@H](C)C(=O)N[C@@H](CCCCN)C(=O)N[C@@H](CO)C(=O)O)[C@@H](C)O)C(C)C [RrMbnA] (H-MKIVIVKKVEIQVAGRTGMRCASSCGAKS-OH),"modification by co-expressed RrMbnBC, UV-Vis absorption at ~335 nm",[2],could be modified
same,effect on RrMbnBC stability in limited proteolysis,[3],enhance RrMbnBC stability
MKNDKKVVVKVKDKEMTCGAFNK [VcMbnA peptide],Kd,[4],3 µM
same,Kd,[5],4.14 µM
MKIVIVKKVEIQVAGRTGMRCASSCGAKS [RrMbnA peptide],Kd,[6],2.7 µM
